Tests used:
non-diabetic SPRD rats = assay: Reduction of the blood glucose level after per-oral dosage (via gavage) to non-diabetic SPRD rats; assay type: in vivo
Description: The reduction in blood glucose in non-diabetic rats was examined after:
3) Vehicle SEDDS containing 62.5% propylene glycol, 31.25% Capmul MCM C10 and 6.25% poloxamer 407 was dosed orally. SEDDS had been melted at 35° C. before dosing.
(mean±SEM, n=5-6, dosage volume=4 ml/kg).

non diabetic dogs = assay: Reduction in blood glucose after oral administration of enteric coated capsule to non diabetic dogs; assay type: in vivo; conditions: overnight fasted dogs, propylene glycol, Capmul MCM, Pluronic F127, PEG 3350

Substance	Blood glucose level (non-diabetic SPRD rats; 4800 nmol/kg in SEDDS (propylene glycol, Capmul MCM C10, poloxamer 407) or 4880 nmol/kg in H2O, FIG. 4)	Blood glucose levels (non diabetic dogs; oral enteric coated capsule: 46 mg A14GluB25HisdesB30 human insulin, FIG. 2)	Blood glucose level (non-diabetic SPRD rats; 9600 nmol/kg in SEDDS (propylene glycol, Capmul MCM C10, poloxamer 407) or 9800 nmol/kg in H2O, FIG. 3)	Blood glucose levels (non diabetic dogs; oral enteric coated capsule: 69 mg insulin aspart, FIG. 1)
A14GluB25HisdesB30 human insulin	Reduction of the Blood Glucose Level	Reduction in blood glucose levels		
Asp^B28 human insulin [insulin aspart]			Reduction of the Blood Glucose Level	Reduction in blood glucose levels

From patent US20110144010A1, “Spontaneously Dispersible Preconcentrates Including a Peptide Drug in a Solid or Semisolid Carrier” (Novo Nordisk A/S, priority 2007, published 2011)
